Reference: the NIST ThermoML archive (doi:10.1016/j.jct.2019.02.028)

Details: Gas, Burnett expansion method

[He] [helium]
Details	mass density [kg/m3]
323.66 K, 875.31 kPa	1.297
323.67 K, 386.6 kPa	0.5746
323.67 K, 1986.4 kPa	2.9278
323.67 K, 2996.7 kPa	4.3975
323.68 K, 581.96 kPa	0.8635
323.68 K, 1318.2 kPa	1.9481
323.68 K, 4542.5 kPa	6.6206
333.58 K, 398.41 kPa	0.5744
333.58 K, 901.91 kPa	1.2964
333.58 K, 1358 kPa	1.9472
333.58 K, 3086.7 kPa	4.3949
333.58 K, 4675.1 kPa	6.6128
333.59 K, 2046.3 kPa	2.926
333.62 K, 599.5 kPa	0.8631
343.5 K, 616.99 kPa	0.8628
343.5 K, 1397.8 kPa	1.9464
343.51 K, 928.6 kPa	1.2959
343.51 K, 3177 kPa	4.3922
343.51 K, 4808.1 kPa	6.6049
343.52 K, 410.1 kPa	0.5742
343.52 K, 2106 kPa	2.9243
353.39 K, 421.94 kPa	0.5741
353.39 K, 634.63 kPa	0.8624
353.39 K, 3267.2 kPa	4.3896
353.39 K, 4938.7 kPa	6.5971
353.4 K, 954.95 kPa	1.2953
353.4 K, 1437.5 kPa	1.9455
353.4 K, 2165.8 kPa	2.9225
363.2 K, 2225.1 kPa	2.9208
363.28 K, 1476.9 kPa	1.9446
363.28 K, 5072.4 kPa	6.5893
363.29 K, 433.46 kPa	0.5739
363.29 K, 433.47 kPa	0.5739
363.29 K, 652.06 kPa	0.862
363.29 K, 652.07 kPa	0.862
363.29 K, 981.18 kPa	1.2947
363.29 K, 2225 kPa	2.9208
363.29 K, 3356.7 kPa	4.387
